Values after ≈ are worked out from the molar mass of the structure shown. Read-outs that look alike come from different tables or passages of the source.
What was measured:
[1] = test system: spsB(S29P) S. epidermidis RP62A; assay: microbe, parasite or virus in culture; type: cell-based, Staphylococcus epidermidis; details: for MIC: Staphylococcus epidermidis
B. brevis = assay: microbe, parasite or virus in culture; type: cell-based, Brevibacillus brevis; details: for MIC: Brevibacillus brevis
R. equi = assay: microbe, parasite or virus in culture; type: cell-based; details: Rhodococcus (subgen. Prescottella) equi; Table 4
S. agalactiae = assay: microbe, parasite or virus in culture; type: cell-based, Streptococcus agalactiae; details: for MIC: Streptococcus agalactiae
C. glutamicum = assay: microbe, parasite or virus in culture; type: cell-based, Corynebacterium glutamicum; details: for MIC: Corynebacterium glutamicum
L. lactis = assay: microbe, parasite or virus in culture; type: cell-based, Lactococcus lactis
Yersinia pestis = assay: microbe, parasite or virus in culture; type: cell-based; details: read-out: MIC, Yersinia pestis
[2] = test system: E. coli PAS0232 (SPase P84S); assay: microbe, parasite or virus in culture; type: cell-based; details: Escherichia coli, read-out: MIC, E. coli PAS0232
Enterococcus faecalis = assay: microbe, parasite or virus in culture; type: cell-based; details: Table 13
Clostridium difficile = assay: microbe, parasite or virus in culture; type: cell-based; details: Clostridioides difficile, Table 13
Clostridium bolteae = assay: microbe, parasite or virus in culture; type: cell-based; details: Enterocloster bolteae, Table 13
[3] = biological target: T1, P84S variant of truncated E. coli SPase (Escherichia coli, UniProt P00803, P84S); assay: biochemical; type: binding
T1 construct: a truncated wild type E. coli SPase that lacks the N-terminal membrane helices; made in house; host or cells: E. coli BL21(DE3)

[4] = biological target: T2, full-length wild type E. coli SPase (Pro-variant) (Escherichia coli, UniProt P00803); assay: biochemical; type: binding
T2 construct: Full length His-tagged E. coli SPase proteins were expressed in BL21(DE3); His6; made in house; host or cells: E. coli BL21(DE3)

[5] = biological target: T3, full-length P84S E. coli SPase (Ser-variant) (Escherichia coli, UniProt P00803, P84S); assay: biochemical; type: binding
T3 construct: Full length His-tagged E. coli SPase proteins were expressed in BL21(DE3); His6; made in house; host or cells: E. coli BL21(DE3)

[6] = biological target: T4, full-length P29S mutant S. aureus SPase (Ser-variant) (Staphylococcus aureus, UniProt P0A070, P29S); assay: biochemical; type: binding
T4 construct: Full length His-tagged S. aureus SPase proteins were expressed in and purified from BL21(DE3); His6 (N); made in house; host or cells: E. coli BL21(DE3)

[7] = test system: E. coli and P. aeruginosa serine mutants; assay: MIC after permeabilizing with polymyxin B nonapeptide; type: cell-based

`CCCCCCCCCCCCCCCC(=O)N(C)[C@H](CO)C(=O)N[C@H](C)C(=O)NCC(=O)N(C)[C@@H]1C(=O)N[C@@H](C)C(=O)N[C@H](C(=O)O)Cc2ccc(O)c(c2)-c2cc1ccc2O` [Arylomycin C16] showed an MIC ([1]; read-out: MIC, Resistant Se) of 8 µg/mL (≈ 9.08 µM), an MIC ([1]; read-out: MIC, S. epidermidis PAS9001) of 8 µg/mL (≈ 9.08 µM) and an MIC ([1]; read-out: MIC, resistant S. epidermidis) of 8 µg/mL (≈ 9.08 µM). The “MIC, Resistant Se” value ([1]; Table 2B, SPase with resistance-conferring Pro) was 8 µg/mL (≈ 9.08 µM), the “fold elevated MIC compared to the wild type strain, Ser to Pro at position 29” value ([1]; ~75% of selected S. epidermidis mutants) was 32 fold and the MIC (B. brevis; Table 4, read-out: MIC, B. brevis) was over 64 µg/mL. For the same compound, the MIC (B. brevis; Table 13, […], read-out: MIC, Brevibacillus brevis) was over 64 µg/mL, the “activity against B. brevis” value (B. brevis; MHBII broth and nutrient broth) was “no activity” and the MIC (R. equi) was 16 µg/mL (≈ 18.2 µM). For the same compound, the MIC (S. agalactiae; Table 4, read-out: MIC, S. agalactiae) was over 128 µg/mL, the MIC (S. agalactiae; Table 13, […], read-out: MIC, Streptococcus agalactiae) was over 128 µg/mL and the “MIC, S. agalactiae” value (S. agalactiae; Table 14) was over 128 µg/mL. For the same compound, the MIC (C. glutamicum; Table 4, read-out: MIC, C. glutamicum) was 2 µg/mL (≈ 2.27 µM), the MIC (C. glutamicum; text b755, read-out: MIC, Corynebacterium glutamicum) was 2 µg/mL (≈ 2.27 µM) and the “MIC, Corynebacterium glutamicum” value (C. glutamicum; Table 13, […]) was 2 µg/mL (≈ 2.27 µM). For the same compound, the MIC (L. lactis; Lactococcus lactis, Table 4) was 16 µg/mL (≈ 18.2 µM), the “MIC, Lactococcus lactis” value (L. lactis; Table 13, multiple values: different strains) was 16 µg/mL (≈ 18.2 µM) and the “sensitivity of Lactococcus lactis spp. cremonis” value (L. lactis; one SPase with Leu29) was “sensitive”. For the same compound, the “sensitivity of Lactococcus lactis spp. lactii” value (L. lactis; single SPase with Leu29) was “resistant”, the MIC (Yersinia pestis) was 4 µg/mL (≈ 4.54 µM) and the MIC [2] was 2 µg/mL (≈ 2.27 µM). For the same compound, the MIC (Enterococcus faecalis) was over 64 µg/mL, the MIC (Clostridium difficile) was over 16 µg/mL and the MIC (Clostridium bolteae) was over 16 µg/mL. For the same compound, the Kd [3] was 39 ± 15 nM, the Kd [4] was 60 ± 16 nM and the Kd [5] was 5.7 ± 1 nM. The Kd [6] was 130 ± 53 nM and the “decrease of MIC on permeabilizing with polymyxin B nonapeptide” value [7] was at most 4 fold.

Source: patent publication US9187524B2, “Broad spectrum antibiotic arylomycin analogs” (The Scripps Research Institute, priority 2010, dated 2015)
